In data set [1] the target is MMP-8 (Homo sapiens, UniProt P22894). Put plainly: fluorimetric assay of MMP activity. The settings on record: synthetic fluorescent peptide substrate Mca-Lys-Pro-Leu-Gly-Leu-Dpa-Ala-Arg-NH2. It is filed as biochemical.
Data set [2] deals with T1, MMP-7 (Homo sapiens, UniProt P09237).
T1 sequence (P09237 95-267): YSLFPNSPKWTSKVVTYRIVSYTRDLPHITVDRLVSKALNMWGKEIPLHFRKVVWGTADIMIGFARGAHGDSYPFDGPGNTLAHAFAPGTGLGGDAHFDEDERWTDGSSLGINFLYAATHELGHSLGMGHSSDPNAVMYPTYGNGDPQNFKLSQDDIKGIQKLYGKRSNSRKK
Description: fluorimetric assay of MMP activity. The class given is biochemical. The note with it: synthetic fluorescent peptide substrate Mca-Lys-Pro-Leu-Gly-Leu-Dpa-Ala-Arg-NH2.

For data set [3], the target named is T2, MMP-2 (Homo sapiens, UniProt P08253).
T2 sequence (P08253 110-660): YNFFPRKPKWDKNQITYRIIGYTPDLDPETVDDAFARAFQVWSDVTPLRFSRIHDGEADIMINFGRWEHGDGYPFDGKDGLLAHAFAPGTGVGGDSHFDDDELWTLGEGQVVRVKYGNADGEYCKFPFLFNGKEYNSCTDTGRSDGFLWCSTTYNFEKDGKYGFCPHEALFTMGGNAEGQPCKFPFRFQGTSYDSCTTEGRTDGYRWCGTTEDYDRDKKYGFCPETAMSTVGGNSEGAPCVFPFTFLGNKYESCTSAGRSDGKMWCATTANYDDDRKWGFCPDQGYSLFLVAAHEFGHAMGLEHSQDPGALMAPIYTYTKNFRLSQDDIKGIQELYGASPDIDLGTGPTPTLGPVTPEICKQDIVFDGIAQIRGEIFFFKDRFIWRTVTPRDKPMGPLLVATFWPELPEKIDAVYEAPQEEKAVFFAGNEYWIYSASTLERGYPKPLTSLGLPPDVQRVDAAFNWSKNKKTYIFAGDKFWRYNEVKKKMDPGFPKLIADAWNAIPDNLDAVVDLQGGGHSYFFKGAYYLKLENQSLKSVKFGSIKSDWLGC
Description: fluorimetric assay of MMP activity. The class given is biochemical.

Data set [4] addresses T3, MMP-1 (Homo sapiens, UniProt P03956).
T3 sequence (P03956 100-469): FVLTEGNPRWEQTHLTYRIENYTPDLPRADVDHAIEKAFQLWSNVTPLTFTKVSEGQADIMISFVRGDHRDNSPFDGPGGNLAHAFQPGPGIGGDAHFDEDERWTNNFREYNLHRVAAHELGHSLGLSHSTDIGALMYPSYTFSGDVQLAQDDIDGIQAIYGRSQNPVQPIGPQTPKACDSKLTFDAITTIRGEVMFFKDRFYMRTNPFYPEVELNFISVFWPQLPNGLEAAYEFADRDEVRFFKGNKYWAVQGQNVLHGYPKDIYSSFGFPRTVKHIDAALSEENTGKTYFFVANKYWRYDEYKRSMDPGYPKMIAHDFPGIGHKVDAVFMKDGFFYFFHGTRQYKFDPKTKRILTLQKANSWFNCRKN
Description: fluorimetric assay of MMP activity. The class given is biochemical. The settings on record: synthetic fluorescent peptide substrate Mca-Lys-Pro-Leu-Gly-Leu-Dpa-Ala-Arg-NH2.

The target of data set [5] is MMP-9 (Homo sapiens, UniProt P14780). Put plainly: fluorimetric assay of MMP activity. It is filed as biochemical. The settings on record: synthetic fluorescent peptide substrate Mca-Lys-Pro-Leu-Gly-Leu-Dpa-Ala-Arg-NH2.
MMP-9, sequence (P14780 94-707): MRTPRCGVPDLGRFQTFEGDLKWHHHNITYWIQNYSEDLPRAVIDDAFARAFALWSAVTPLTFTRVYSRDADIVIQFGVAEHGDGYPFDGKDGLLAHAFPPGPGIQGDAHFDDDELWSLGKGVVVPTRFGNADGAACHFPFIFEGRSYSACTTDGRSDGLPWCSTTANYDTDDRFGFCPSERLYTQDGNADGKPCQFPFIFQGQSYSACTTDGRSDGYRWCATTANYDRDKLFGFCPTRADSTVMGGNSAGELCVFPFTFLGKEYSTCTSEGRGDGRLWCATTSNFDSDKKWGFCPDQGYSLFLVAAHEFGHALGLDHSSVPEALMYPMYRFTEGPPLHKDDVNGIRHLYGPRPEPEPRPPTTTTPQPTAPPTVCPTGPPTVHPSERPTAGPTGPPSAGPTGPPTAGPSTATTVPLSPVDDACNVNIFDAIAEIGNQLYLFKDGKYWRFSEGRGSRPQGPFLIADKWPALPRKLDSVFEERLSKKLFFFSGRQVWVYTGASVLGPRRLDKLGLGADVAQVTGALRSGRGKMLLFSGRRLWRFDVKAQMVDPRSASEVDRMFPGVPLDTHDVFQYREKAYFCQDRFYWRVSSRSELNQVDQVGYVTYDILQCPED
Data set [6] deals with MMP-13 (Homo sapiens, UniProt P45452). Description: fluorimetric assay of MMP activity. The settings on record: synthetic fluorescent peptide substrate Mca-Lys-Pro-Leu-Gly-Leu-Dpa-Ala-Arg-NH2. It is filed as biochemical.
For data set [7], the target named is MMP-14 (Homo sapiens, UniProt P50281). Description: fluorimetric assay of MMP activity. The class given is biochemical. The note with it: synthetic fluorescent peptide substrate Mca-Lys-Pro-Leu-Gly-Leu-Dpa-Ala-Arg-NH2.
Data set [8] deals with MMP-3 (Homo sapiens, UniProt P08254). Description: fluorimetric assay of MMP activity. It is filed as biochemical. The note with it: synthetic fluorescent peptide substrate Mca-Lys-Pro-Leu-Gly-Leu-Dpa-Ala-Arg-NH2.
MMP-3, sequence (P08254 100-477): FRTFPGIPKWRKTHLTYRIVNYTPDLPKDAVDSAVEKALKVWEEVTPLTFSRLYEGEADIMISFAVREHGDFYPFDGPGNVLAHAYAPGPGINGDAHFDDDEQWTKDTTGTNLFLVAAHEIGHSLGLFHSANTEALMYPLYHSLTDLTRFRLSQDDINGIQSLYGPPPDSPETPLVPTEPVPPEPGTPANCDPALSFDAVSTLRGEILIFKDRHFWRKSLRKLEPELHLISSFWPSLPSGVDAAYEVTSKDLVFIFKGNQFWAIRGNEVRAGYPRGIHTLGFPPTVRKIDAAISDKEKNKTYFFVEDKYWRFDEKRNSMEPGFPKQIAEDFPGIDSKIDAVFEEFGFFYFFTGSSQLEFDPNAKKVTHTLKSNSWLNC
Data set [9] deals with MMP-12 (Homo sapiens, UniProt P39900). Put plainly: fluorimetric assay of MMP activity. It is filed as biochemical. The settings on record: synthetic fluorescent peptide substrate Mca-Lys-Pro-Leu-Gly-Leu-Dpa-Ala-Arg-NH2.
MMP-12, sequence (P39900 106-470): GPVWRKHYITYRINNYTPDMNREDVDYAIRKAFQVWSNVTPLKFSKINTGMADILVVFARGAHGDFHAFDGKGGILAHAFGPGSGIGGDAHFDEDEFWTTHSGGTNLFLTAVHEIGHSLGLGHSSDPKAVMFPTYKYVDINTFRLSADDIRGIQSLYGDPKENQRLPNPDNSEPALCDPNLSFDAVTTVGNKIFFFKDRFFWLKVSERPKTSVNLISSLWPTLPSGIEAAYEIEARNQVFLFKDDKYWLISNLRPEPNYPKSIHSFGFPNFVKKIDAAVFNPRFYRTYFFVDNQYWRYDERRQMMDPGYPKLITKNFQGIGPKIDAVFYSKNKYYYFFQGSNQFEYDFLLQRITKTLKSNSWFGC
Data set [10] in a line: blood glucose of the rats of the collagen experiment. It is filed as in vivo, rat. The settings on record: diabetic rats.
Data set [11] concerns collagen in wound tissue. Description: collagen fractions (hydroxyproline) in wound tissue of diabetic rats. It is filed as in vivo, rat. The settings on record: wound tissue day 6. An excerpt: Biochemical measurements were made on wound tissue 6 days after creating the standardized 6 mm diameter wounds in the various groups of rats including: (1) non-diabetic controls (NDC); (2) Diabetic (DM) rats treated topically with 0.25% curcumin; (3) DM treated with 1% curcumin; (4) DM treated with 0.25% Compound 4, and (5) DM rats treated with 1% Compound 4. The wound tissues from these five different groups were then hydrolyzed (after extraction; see below) to degrade the collagen to individual amino acids, and the amino acid unique to collagen, hydroxyproline, was measured by a commercial colorimetric assay. Prior to hydrolysis, the wound tissues were extracted (at 4° C. to maintain the triple-helical conformation of the collagen molecules) to obtain first the salt-soluble fraction, then the acid-soluble fraction, leaving the insoluble fraction.

Data set [12] deals with MMPs 1, 2, 3, 7, 8, 9, 12, 13 and 14. Description: activity against a battery of MMPs (summary in words). It is filed as biochemical, human.
Data set [13] can be described thus: toxicity / tolerability in diabetic rats. The class given is in vivo. The note with it: at elevated levels. As for the experimental part: The following five experimental groups (n=3 rats per group) were established: Non-diabetic control rats (NDC) treated by daily application of white petrolatum jelly (“vehicle”) for 7 days, diabetic rats (D group) treated daily with vehicle alone; diabetics treated by daily topical application of either a 1% (D+1%) or a 3% (D+3%) suspension of Compound 4 in the vehicle; and diabetics treated systemically by daily oral intubation of a 1 ml suspension of Compound 4 (in carboxymethylcellulose) at a dose of 30 mg/kg over the 7-day treatment protocol (D+30 mg/kg). At the end of this time period, the circular wounds were clinically assessed by measuring diameter of the wound in millimeters, blood samples were collected, the rats were sacrificed, and skin samples collected for histological/histochemical, and biochemical assessment as described below. • 1) On day 7 after inducing wound healing, the animals were anesthetized and blood samples collected for blood glucose (one Touch Ultra Glucometer; Johnson & Johnson, New Brunswick, N.J.) and Hemoglobin A1c (A1c Now+; Bayer Health Care, Sunnyvale, Calif.) measurements. • 2) Photographs were taken for clinical observations to assess wound closure. The % reduction of the wound surface was calculated by measuring the diameter (in millimeters) of each wound before and after the treatment protocol. • 3) Wound tissues on day 7 were excised from 3 sites per rat and pooled for biochemical analysis. […] The supernates were then dialyzed against the Tris-HCl, NaCl, CaCl2 buffer, and the proteinases partially purified by ammonium sulfate precipitation and examined for levels of MMP-2 (72 kD gelatinse) and MMP-9 (92 kD gelatinase) by gelatin zymography using denatured type I collagen (gelatin) as the substrate (6). • 4) The remaining wounds were assessed histologically & histochemically by Dr. Steve McClain (McClain Labs, Smithtown, N.Y.) as follows: Biopsies of each wound site were taken and included both the wound tissue and surrounding non-wounded tissue. […]

Setting [14] is: synthetic fluorescent peptide substrate Mca-Lys-Pro-Leu-Gly-Leu-Dpa-Ala-Arg-NH2, read-out: IC50 MMP-2.

Here are results for five compounds from patent US20160355465A1, “NOVEL MODIFIED CURCUMINS AND THEIR USES” (THE RESEARCH FOUNDATION OF STATE UNIVERSITY OF NEW YORK, priority 2011, published 2016).

Like-named read-outs stand apart in the source and are kept apart here.

MMP-8, sequence (P22894 101-467): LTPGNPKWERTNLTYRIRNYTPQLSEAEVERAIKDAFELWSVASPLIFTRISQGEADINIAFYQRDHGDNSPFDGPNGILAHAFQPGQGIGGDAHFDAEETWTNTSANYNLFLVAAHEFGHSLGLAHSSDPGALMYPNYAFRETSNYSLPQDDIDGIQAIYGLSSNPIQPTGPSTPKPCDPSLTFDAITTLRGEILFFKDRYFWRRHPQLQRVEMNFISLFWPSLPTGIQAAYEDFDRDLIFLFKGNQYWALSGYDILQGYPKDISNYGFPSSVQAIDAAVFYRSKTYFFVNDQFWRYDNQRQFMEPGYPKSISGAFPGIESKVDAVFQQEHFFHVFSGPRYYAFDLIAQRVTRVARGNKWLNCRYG

The term IC50 denotes the point on the concentration scale where inhibition reaches its midpoint. Consider `c1cnc2c(c1)ccc1cccnc12` [1,10-Phen, 1,10-phenanthroline, reference compound], for which the half-inhibitory concentration (IC50) in data set [1] amounted to 31.3 ± 0.5 µM; in data set [2] it was 197 ± 8.8 µM; in data set [3] (setting [14]) it was 73.8 ± 1 µM; in [4], 42 ± 1.1 µM; in data set [5], 45 ± 12.6 µM; in [6], 50 ± 10.4 µM. In addition, the results for the IC50 in data set [7], in data set [8] and in data set [9] were 43.8 ± 4.2 µM, 77 ± 3.2 µM and 29.5 ± 1.3 µM, respectively.
For the compound `COc1cc(/C=C/C(=O)CC(=O)/C=C/c2ccc(O)c(OC)c2)ccc1O` [Compound 1, 1,7-Bis(4-hydroxy-3-methoxyphenyl)hepta-1E,6E-dien-3,5-dione, reference compound], the “Blood Glucose” value in data set [10] (0.25% topical) was determined as 569 mg/dL; in data set [10] (1% topical), 540 mg/dL. In addition, the IC50 in data set [2] is 51.8 ± 2.5 µM; in data set [3], 5 ± 0.7 µM; in [5], 30 ± 2.9 µM; in data set [7], 29.5 ± 3.2 µM; in data set [8], 4.7 ± 0.8 µM; in data set [9], 2.6 ± 0.2 µM. Also, the “Collagen Fractions (%) Acid-soluble” value is 48.3% in [11] (0.25% topical) and 50.9% in data set [11] (1% topical). In addition, the figures for the “Collagen Fractions (%) Insoluble” value in data set [11] (0.25% topical) and in data set [11] (1% topical) were 36.4% and 27.1%, respectively. The “Collagen Fractions (%) Salt-soluble” value turned out to be 15.3% in data set [11] (0.25% topical) and 22.0% in data set [11] (1% topical).
Take `COC(=O)C(C(=O)/C=C/c1ccc(O)c(OC)c1)C(=O)/C=C/c1ccc(O)c(OC)c1` [Compound 2, 1,7-Bis(4-hydroxy-3-methoxyphenyl)-4-methoxycarbonylhepta-1E,6E-dien-3,5-dione]: the IC50 in data set [1] was found to be 30.8 ± 1.5 µM; in data set [2], 48.8 ± 0.5 µM; in data set [3] (setting [14]) it was 25.3 ± 1.3 µM; in [4], 74 ± 3.5 µM; in [5], 55 ± 17.3 µM; in data set [7], 48.5 ± 4.3 µM. Further, the IC50 amounted to 32.5 ± 2.8 µM in [8] and 27.8 ± 1.7 µM in data set [9].
Consider `COc1cc(/C=C/C(=O)C(C(=O)/C=C/c2ccc(O)c(OC)c2)C(=O)Nc2ccccc2)ccc1O` [Compound 3, 1,7-Bis(4-hydroxy-3-methoxyphenyl)-4-N-phenylaminocarbonylhepta-1E, 6E-dien-3,5-dione], for which the IC50 in [1] was determined as 2.5 ± 0.3 µM; in data set [2], 21.5 ± 1 µM; in data set [3] (setting [14]) it was 6.3 ± 0.9 µM; in data set [4] it was 68 ± 3.2 µM; in [5] it was 8.7 ± 0.7 µM; in data set [7], 41.3 ± 4.9 µM. Besides, the figures for the IC50 in data set [8] and in data set [9] were 5.3 ± 0.7 µM and 4.5 ± 0.5 µM, respectively. Further, in [12], the “anti-MMP activity (in words)” value is given as “highly active”. Further, the toxicity entry in data set [13] was “some toxicity”.
For `COC(=O)C(C(=O)/C=C/c1ccc(O)cc1)C(=O)/C=C/c1ccc(O)cc1` [Compound 5, 1,7-Bis(4-hydroxyphenyl)-4-methoxycarbonylhepta-1E,6E-dien-3,5-dione], the half-inhibitory concentration (IC50) in data set [1] stood at 20 ± 2 µM; in [2], 57.5 ± 4.6 µM; in data set [3] (setting [14]), 23.8 ± 0.9 µM; in data set [4], 76.3 ± 6.5 µM; in data set [5], 43.3 ± 4.4 µM; in [6] it was 26.7 ± 1.7 µM. In addition, the IC50 in [7] came to 40 ± 8.4 µM; in [8], 28.3 ± 1 µM; in data set [9], 5.3 ± 0.3 µM.
